Data: ChEMBL document CHEMBL3044624, “Cycloate, an inhibitor of fatty acid elongase, modulates the metabolism of very-long-side-chain alkylresorcinols in rye seedlings” (Pest Manag Sci, 2009)

Tests used:
Secale cereale [1] = experiment: Change in alkylresorcinol homologue composition in dry shoots of green Secale cereale (rye) seedlings grown from compound-treated seeds at 15 +/-2 degC assessed as C21:1 content at 46 uM by GC/EI-MS analysis; type: functional
Secale cereale [2] = experiment: Toxicity against green Secale cereale (rye) seedlings assessed as dry biomass of seedling grown at 29 +/-2 degC at 46 uM measured at 5 days after compound-treated seed germination (reference value: 2.32 +/-0.05 g); type: organism-based; conditions: in vivo, 120 h
Secale cereale [3] = experiment: Change in alkylresorcinol homologue composition in dry shoots of etiolated Secale cereale (rye) seedlings grown from compound-treated seeds at 22 +/-2 degC assessed as C23:0 content at 46 uM by GC/EI-MS analysis (reference value: 0.37 mg/kg dry weight); type: functional
Secale cereale [4] = experiment: Change in alkylresorcinol homologue composition in dry shoots of etiolated Secale cereale (rye) seedlings grown from compound-treated seeds at 29 +/-2 degC assessed as C17:1 content at 46 uM by GC/EI-MS analysis (reference value: 0.05 mg/kg dry weight); type: functional
Secale cereale [5] = experiment: Change in alkylresorcinol homologue composition in dry shoots of green Secale cereale (rye) seedlings grown from compound-treated seeds at 15 +/-2 degC assessed as C21:0 content at 46 uM by GC/EI-MS analysis (reference value: 0.41 mg/kg dry weight); type: functional
Secale cereale [6] = experiment: Change in alkylresorcinol homologue composition in dry shoots of green Secale cereale (rye) seedlings grown from compound-treated seeds at 29 +/-2 degC assessed as C17:0 content at 46 uM by GC/EI-MS analysis (reference value: 0.75 mg/kg dry weight); type: functional
Secale cereale [7] = experiment: Change in alkylresorcinol homologue composition in dry shoots of green Secale cereale (rye) seedlings grown from compound-treated seeds at 22 +/-2 degC assessed as C21:1 content at 46 uM by GC/EI-MS analysis (reference value: 0.09 mg/kg dry weight); type: functional
Secale cereale [8] = experiment: Change in alkylresorcinol homologue composition in dry shoots of green Secale cereale (rye) seedlings grown from compound-treated seeds at 29 +/-2 degC assessed as C23:0 content at 46 uM by GC/EI-MS analysis (reference value: 0.08 mg/kg dry weight); type: functional
Secale cereale [9] = experiment: Change in alkylresorcinol homologue composition in dry shoots of green Secale cereale (rye) seedlings grown from compound-treated seeds at 15 +/-2 degC assessed as C19:1 content at 46 uM by GC/EI-MS analysis (reference value: 0.23 mg/kg dry weight); type: functional
Secale cereale [10] = experiment: Change in alkylresorcinol homologue composition in dry shoots of green Secale cereale (rye) seedlings grown from compound-treated seeds at 22 +/-2 degC assessed as C17:0 content at 46 uM by GC/EI-MS analysis (reference value: 0.93 mg/kg dry weight); type: functional
Secale cereale [11] = experiment: Toxicity against green Secale cereale (rye) seedlings assessed as dry biomass of seedling grown at 15 +/-2 degC at 46 uM measured at 5 days after compound-treated seed germination (reference value: 1.64 +/-0.03 g); type: organism-based; conditions: in vivo, 120 h
Secale cereale [12] = experiment: Change in alkylresorcinol homologue composition in dry shoots of green Secale cereale (rye) seedlings grown from compound-treated seeds at 15 +/-2 degC assessed as C17:1 content at 46 uM by GC/EI-MS analysis (reference value: 0.17 mg/kg dry weight); type: functional
Secale cereale [13] = experiment: Change in alkylresorcinol homologue composition in dry shoots of etiolated Secale cereale (rye) seedlings grown from compound-treated seeds at 29 +/-2 degC assessed as C25:0 content at 46 uM by GC/EI-MS analysis (reference value: 0.06 mg/kg dry weight); type: functional
Secale cereale [14] = experiment: Change in alkylresorcinol homologue composition in dry shoots of etiolated Secale cereale (rye) seedlings grown from compound-treated seeds at 15 +/-2 degC assessed as C19:0 content at 46 uM by GC/EI-MS analysis (reference value: 1.77 mg/kg dry weight); type: functional
Secale cereale [15] = experiment: Toxicity against etiolated Secale cereale (rye) seedlings assessed as fresh biomass of seedling grown at 29 +/-2 degC at 46 uM measured at 5 days after compound-treated seed germination (reference value: 16.03 +/-0.67 g); type: organism-based; conditions: in vivo, 120 h
Secale cereale [16] = experiment: Change in alkylresorcinol homologue composition in dry shoots of etiolated Secale cereale (rye) seedlings grown from compound-treated seeds at 29 +/-2 degC assessed as C21:1 content at 46 uM by GC/EI-MS analysis (reference value: 0.04 mg/kg dry weight); type: functional
Secale cereale [17] = experiment: Change in alkylresorcinol homologue composition in dry shoots of green Secale cereale (rye) seedlings grown from compound-treated seeds at 29 +/-2 degC assessed as C19:1 content at 46 uM by GC/EI-MS analysis (Rvb =0.17 mg/kg dry weight); type: functional
Secale cereale [18] = experiment: Change in alkylresorcinol homologue composition in dry shoots of green Secale cereale (rye) seedlings grown from compound-treated seeds at 22 +/-2 degC assessed as C19:1 content at 46 uM by GC/EI-MS analysis (reference value: 0.20 mg/kg dry weight); type: functional
Secale cereale [19] = experiment: Toxicity against etiolated Secale cereale (rye) seedlings assessed as dry biomass of seedling grown at 29 +/-2 degC at 46 uM measured at 5 days after compound-treated seed germination (reference value: 2.13 +/-0.03 g); type: organism-based; conditions: in vivo, 120 h
Secale cereale [20] = experiment: Change in alkylresorcinol homologue composition in dry shoots of etiolated Secale cereale (rye) seedlings grown from compound-treated seeds at 22 +/-2 degC assessed as C15:0 content at 46 uM by GC/EI-MS analysis (reference value: 0.60 mg/kg dry weight); type: functional
Secale cereale [21] = experiment: Toxicity against etiolated Secale cereale (rye) seedlings assessed as fresh biomass of seedling grown at 22 +/-2 degC at 46 uM measured at 5 days after compound-treated seed germination (reference value: 21.43 +/-0.35 g); type: organism-based; conditions: in vivo, 120 h
Secale cereale [22] = experiment: Change in alkylresorcinol homologue composition in dry shoots of green Secale cereale (rye) seedlings grown from compound-treated seeds at 29 +/-2 degC assessed as C15:0 content at 46 uM by GC/EI-MS analysis (reference value: 0.11 mg/kg dry weight); type: functional
Secale cereale [23] = experiment: Change in alkylresorcinol homologue composition in dry shoots of etiolated Secale cereale (rye) seedlings grown from compound-treated seeds at 15 +/-2 degC assessed as C23:0 content at 46 uM by GC/EI-MS analysis (reference value: 0.33 mg/kg dry weight); type: functional
Secale cereale [24] = experiment: Change in alkylresorcinol homologue composition in dry shoots of green Secale cereale (rye) seedlings grown from compound-treated seeds at 29 +/-2 degC assessed as C21:1 content at 46 uM by GC/EI-MS analysis (reference value: 0.04 mg/kg dry weight); type: functional
Secale cereale [25] = experiment: Change in alkylresorcinol homologue composition in dry shoots of green Secale cereale (rye) seedlings grown from compound-treated seeds at 15 +/-2 degC assessed as C25:0 content at 46 uM by GC/EI-MS analysis (reference value: 0.06 mg/kg dry weight); type: functional
Secale cereale [26] = experiment: Change in alkylresorcinol content in dry shoots of green Secale cereale (rye) seedlings grown from compound-treated seeds at 22 +/-2 degC at 46 uM by thin layer chromatography (reference value: 3.13 +/-0.07 mg/kg dry weight); type: functional

## CCSC(=O)N(CC)C1CCCCC1 [CYCLOATE]
Secale cereale [1]
  Activity: 0.19 mg/kg
Secale cereale [2]
  Activity: 1.64 g
Secale cereale [3]
  Activity: 0.3 mg/kg
Secale cereale [4]
  Activity: 0.98 mg/kg
Secale cereale [5]
  Activity: 0.55 mg/kg
Secale cereale [6]
  Activity: 5.42 mg/kg
Secale cereale [7]
  Activity: 0.05 mg/kg
Secale cereale [8]
  Activity: 0.32 mg/kg
Secale cereale [9]
  Activity: 0.37 mg/kg
Secale cereale [10]
  Activity: 1.32 mg/kg
Secale cereale [11]
  Activity: 1.12 g
Secale cereale [12]
  Activity: 0.34 mg/kg
Secale cereale [13]
  Activity: 0.23 mg/kg
Secale cereale [14]
  Activity: 2.64 mg/kg
Secale cereale [15]
  Activity: 21 g
Secale cereale [16]
  Activity: 0.33 mg/kg
Secale cereale [17]
  Activity: 1.09 mg/kg
Secale cereale [18]
  Activity: 0.36 mg/kg
Secale cereale [19]
  Activity: 2.32 g
Secale cereale [20]
  Activity: 0.1 mg/kg
Secale cereale [21]
  Activity: 6.92 g
Secale cereale [22]
  Activity: 0.53 mg/kg
Secale cereale [23]
  Activity: 0.17 mg/kg
Secale cereale [24]
  Activity: 0.38 mg/kg
Secale cereale [25]
  Activity: 0.09 mg/kg
Secale cereale [26]
  Activity: 3.17 mg/kg
